Laboratory results: publication PMC4984914 (British Journal of Cancer, 2016)

Key:
Assay type in all cases: in vivo
[1] = Preclinical plasma level of cleavage product 12ADT-Asp after dosing; settings: monkeys; any time after dosing of mipsagargin
[2] = as above; settings: mice; any time after dosing of mipsagargin
[3] = as above; settings: rats; any time after dosing of mipsagargin

Measured: Level of cleavage product 12ADT-Asp in plasma

C/C=C(/C)C(=O)O[C@H]1C(C)=C2[C@H]([C@@H]1OC(=O)CCCCCCC)[C@@](C)(OC(C)=O)C[C@H](OC(=O)CCCCCCCCCCCNC(=O)C[C@H](N)C(=O)O)[C@@]1(O)[C@H]2OC(=O)[C@@]1(C)O [12ADT-Asp]
virtually undetectable: all assays above
